In brackets after ≈: the same amount, converted by molar mass.
Columns and labels:
Format in all cases: functional
Candida tropicalis = assay: Antifungal activity against Candida tropicalis assessed as inhibition of fungal growth incubated for 24 hrs by CLSI based microbroth dilution method
Candida albicans [1] = assay: Antifungal activity against Candida albicans assessed as inhibition of fungal growth incubated for 24 hrs by CLSI based microbroth dilution method
Candida parapsilosis = assay: Antifungal activity against Candida parapsilosis ATCC 22019 assessed as inhibition of fungal growth incubated for 24 hrs by CLSI based microbroth dilution method; conditions: Lodderomyces parapsilosis
Candida albicans [2] = assay: Antifungal activity against Candida albicans ATCC 90023 assessed as inhibition of fungal growth incubated for 24 hrs by CLSI based microbroth dilution method
Aspergillus fumigatus = assay: Antifungal activity against Aspergillus fumigatus assessed as inhibition of fungal growth incubated for 24 hrs by CLSI based microbroth dilution method

| SMILES | MIC (Candida tropicalis) | MIC (Candida albicans [1]) | MIC (Candida parapsilosis) | MIC (Candida albicans [2]) | MIC (Aspergillus fumigatus) |
| --- | --- | --- | --- | --- | --- |
| C[n+]1ccccc1/C=N/Nc1ccc2c3c(cccc13)C(=O)N(CCO)C2=O | 32 µM | 32 µM | 64 µM | 255 µM | 127 µM |
| O=C1c2cccc3c(N/N=C/c4c[nH]cn4)ccc(c23)C(=O)N1CCO | 46 µM (≈ 16.1 µg/mL) | 183 µM (≈ 63.9 µg/mL) | 23 µM (≈ 8.04 µg/mL) | 92 µM (≈ 32.1 µg/mL) | 183 µM (≈ 63.9 µg/mL) |
| O=C1c2cccc3c(N/N=C/c4cc(Cl)ccc4O)ccc(c23)C(=O)N1CCO | 313 µM (≈ 128 µg/mL) | 626 µM (≈ 257 µg/mL) | 626 µM (≈ 257 µg/mL) | 313 µM (≈ 128 µg/mL) | 313 µM (≈ 128 µg/mL) |
| O=C1c2cccc3c(N/N=C/c4ccco4)ccc(c23)C(=O)N1CCO | 87 µM (≈ 30.4 µg/mL) | 87 µM (≈ 30.4 µg/mL) | 351 µM (≈ 123 µg/mL) | 175 µM (≈ 61.1 µg/mL) | 87 µM (≈ 30.4 µg/mL) |
| O=C1c2cccc3c(N/N=C/c4ccncc4)ccc(c23)C(=O)N1CCO | 355 µM (≈ 128 µg/mL) | 355 µM (≈ 128 µg/mL) | 355 µM (≈ 128 µg/mL) | 711 µM (≈ 256 µg/mL) | 355 µM (≈ 128 µg/mL) |
| C=CCn1c(CCCC)nc(Cl)c1/C=N/Nc1ccc2c3c(cccc13)C(=O)N(CCO)C2=O | 2 µM (≈ 0.96 µg/mL) | 67 µM (≈ 32.2 µg/mL) | 134 µM (≈ 64.3 µg/mL) | 33 µM (≈ 15.8 µg/mL) | 17 µM (≈ 8.16 µg/mL) |
| C/C(Cn1c([N+](=O)[O-])cnc1C)=N\Nc1ccc2c3c(cccc13)C(=O)N(c1ccc(C(F)(F)F)cc1Cl)C2=O | 477 µM (≈ 272 µg/mL) | 477 µM (≈ 272 µg/mL) | 239 µM (≈ 136 µg/mL) | 954 µM (≈ 545 µg/mL) | 477 µM (≈ 272 µg/mL) |
| CCCCc1nc(Cl)c(/C=N/Nc2ccc3c4c(cccc24)C(=O)N(CCO)C3=O)n1Cc1cccc(F)c1 | 58 µM (≈ 31.8 µg/mL) | 117 µM (≈ 64.1 µg/mL) | 29 µM (≈ 15.9 µg/mL) | 7 µM (≈ 3.84 µg/mL) | 58 µM (≈ 31.8 µg/mL) |
| O=C1c2cccc3c(N/N=C/c4nccs4)ccc(c23)C(=O)N1CCO | 175 µM (≈ 64.1 µg/mL) | 699 µM (≈ 256 µg/mL) | 175 µM (≈ 64.1 µg/mL) | 350 µM (≈ 128 µg/mL) | 350 µM (≈ 128 µg/mL) |
| O=C1c2cccc3c(N/N=C/c4cnc(-c5ccccc5)s4)ccc(c23)C(=O)N1CCO | 87 µM (≈ 38.5 µg/mL) | 87 µM (≈ 38.5 µg/mL) | 5 µM (≈ 2.21 µg/mL) | 22 µM (≈ 9.74 µg/mL) | 44 µM (≈ 19.5 µg/mL) |
| O=C1c2cccc3c(N/N=C/c4cccs4)ccc(c23)C(=O)N1CCO | 351 µM (≈ 128 µg/mL) | 175 µM (≈ 63.9 µg/mL) | 175 µM (≈ 63.9 µg/mL) | 351 µM (≈ 128 µg/mL) | 175 µM (≈ 63.9 µg/mL) |
| C#CCN1C(=O)c2cccc3c(N/N=C(\C)Cn4c([N+](=O)[O-])cnc4C)ccc(c23)C1=O | 1180 µM (≈ 510 µg/mL) | 1180 µM (≈ 510 µg/mL) | 1180 µM (≈ 510 µg/mL) | 1180 µM (≈ 510 µg/mL) | 296 µM (≈ 127 µg/mL) |
| CCCCc1nc(Cl)c(/C=N/Nc2ccc3c4c(cccc24)C(=O)N(CCO)C3=O)n1CCC | 67 µM (≈ 32.3 µg/mL) | 133 µM (≈ 64.1 µg/mL) | 266 µM (≈ 128 µg/mL) | 67 µM (≈ 32.3 µg/mL) | 33 µM (≈ 15.9 µg/mL) |
| CCCCc1nc(Cl)c(/C=N/Nc2ccc3c4c(cccc24)C(=O)N(CCO)C3=O)n1Cc1ccccc1F | 15 µM (≈ 8.22 µg/mL) | 58 µM (≈ 31.8 µg/mL) | 15 µM (≈ 8.22 µg/mL) | 15 µM (≈ 8.22 µg/mL) | 58 µM (≈ 31.8 µg/mL) |
| NN1C(=O)c2cccc3c(N/N=C/c4ccc([N+](=O)[O-])o4)ccc(c23)C1=O | 5 µM (≈ 1.83 µg/mL) | 21 µM (≈ 7.67 µg/mL) | 21 µM (≈ 7.67 µg/mL) | 5 µM (≈ 1.83 µg/mL) | 10 µM (≈ 3.65 µg/mL) |
| COc1ccc(N2C(=O)c3cccc4c(N/N=C(\C)Cn5c([N+](=O)[O-])cnc5C)ccc(c34)C2=O)cc1 | 514 µM (≈ 256 µg/mL) | 514 µM (≈ 256 µg/mL) | 257 µM (≈ 128 µg/mL) | 1030 µM (≈ 512 µg/mL) | 1030 µM (≈ 512 µg/mL) |
| O=C1c2cccc3c(N/N=C/c4ccc(CO)o4)ccc(c23)C(=O)N1CCO | 5 µM (≈ 1.9 µg/mL) | 21 µM (≈ 7.97 µg/mL) | 21 µM (≈ 7.97 µg/mL) | 5 µM (≈ 1.9 µg/mL) | 10 µM (≈ 3.79 µg/mL) |
| C/C(Cn1c([N+](=O)[O-])cnc1C)=N\Nc1ccc2c3c(cccc13)C(=O)N(CCO)C2=O | 1170 µM (≈ 512 µg/mL) | 1170 µM (≈ 512 µg/mL) | 1170 µM (≈ 512 µg/mL) | 1170 µM (≈ 512 µg/mL) | 587 µM (≈ 256 µg/mL) |
| O=C1c2cccc3c(N/N=C/c4ccc(O)c([N+](=O)[O-])c4)ccc(c23)C(=O)N1CCO | 5 µM (≈ 2.1 µg/mL) | 5 µM (≈ 2.1 µg/mL) | 5 µM (≈ 2.1 µg/mL) | 10 µM (≈ 4.2 µg/mL) | 2 µM (≈ 0.841 µg/mL) |
| CCN1C(=O)c2cccc3c(N/N=C(\C)Cn4c([N+](=O)[O-])cnc4C)ccc(c23)C1=O | 1220 µM (≈ 512 µg/mL) | 1220 µM (≈ 512 µg/mL) | 1220 µM (≈ 512 µg/mL) | 1220 µM (≈ 512 µg/mL) | 1220 µM (≈ 512 µg/mL) |
| CCCCc1nc(Cl)c(/C=N/Nc2ccc3c4c(cccc24)C(=O)N(CCO)C3=O)n1Cc1ccc(Cl)cc1 | 28 µM (≈ 15.8 µg/mL) | 57 µM (≈ 32.2 µg/mL) | 57 µM (≈ 32.2 µg/mL) | 7 µM (≈ 3.95 µg/mL) | 57 µM (≈ 32.2 µg/mL) |
| CCCCCCCn1c(CCCC)nc(Cl)c1/C=N/Nc1ccc2c3c(cccc13)C(=O)N(CCO)C2=O | 60 µM (≈ 32.3 µg/mL) | 119 µM (≈ 64 µg/mL) | 238 µM (≈ 128 µg/mL) | 119 µM (≈ 64 µg/mL) | 119 µM (≈ 64 µg/mL) |
| O=C1c2cccc3c(N/N=C/c4cccnc4)ccc(c23)C(=O)N1CCO | 355 µM (≈ 128 µg/mL) | 711 µM (≈ 256 µg/mL) | 89 µM (≈ 32.1 µg/mL) | 355 µM (≈ 128 µg/mL) | 355 µM (≈ 128 µg/mL) |

Reference: ChEMBL document CHEMBL5506069, “A Unique Hybridization Route to Access Hydrazylnaphthalimidols as Novel Structural Scaffolds of Multitargeting Broad-Spectrum Antifungal Candidates” (J Med Chem, 2024)
